Reference: patent US20050159427A1, “N-acylsulfonamide apoptosis promoters” (priority 2003, published 2005)

Test system: A549 human non-small cell lung carcinoma cells
Assay: Paclitaxel combination on A549 cells
Format: cell-based
Settings: stated after the paclitaxel combination results on A549 and PC-3 cells

## CN(C)CC[C@@H](CSc1ccccc1)Nc1ccc(S(=O)(=O)NC(=O)c2ccc(N3CCN(Cc4ccccc4-c4ccc(Cl)cc4)CC3)cc2)cc1[N+](=O)[O-] [enantiomer of EXAMPLE 2, N-(4-(4-((4′-chloro(1,1′-biphenyl)-2-yl)methyl)piperazin-1-yl)benzoyl)-4-(((1S)-3-(dimethylamino)-1-((phenylsulfanyl)methyl)propyl)amino)-3-nitrobenzenesulfonamide]
  efficacy relative to EXAMPLE 2: less efficacious
